Data reported in US11174253B2, “Compound and pharmaceutical composition containing the same” (ALPHALA CO., LTD., priority 2017, dated 2021).

Tests used:
Type in all cases: cell-based
[1] = test system: NCI-H460 human lung cancer cell line; experiment: MTS cell viability assay (NCI-60 methodology), GI50/LC50, NCI-H460; settings: 48 h, NCI-H460 cells, 2 days incubation with compound
Procedure: (§1) The number of treated cells was determined by GE InCell 2200 system, and treated cells were stained with Hoechst 33342 which can reveal the remained nucleus in culture plate. The proportion of survival cells then were calculated with the ratio of treated/non-treated cells. The growth inhibition/cytotoxic effect of selected compounds were evaluated by the following protocol of NCI-60 screening platform. The human tumor cell lines are plating on a 96 well plate in a fixed density 24 hr prior compound treatment. Compounds with multiple concentrations are then added into each well for further 48 hr incubation. Cell viability is assessed by MTS method and the potency of compound is represented by GI50 and LC50 calculated by MTS result.
(§2) The cell viability measurement is based on the NCI-60 screening methodology (Nat. Rev. Cancer 6, 813-823, 2006). Briefly, cells are inoculated into 96-well plates at the optimal plating density. After 24 h, one of the two plates for each cell line is processed to determine a time zero cell viability (Tz) by MTS assay (Promega). Compounds are added over a 2-fold serial dilution to provide a total five drug concentrations plus DMSO control. Plates are incubated for a further 2 days, then measured cell viability by MTS assay [control growth (C) and test growth in the presence of drug at the five concentration levels (Ti)]. Growth inhibition of 50% (GI50) is calculated from [(Ti−Tz)/(C−Tz)]×100=50, which is the drug concentration resulting in a 50% reduction of control cells during the drug incubation. The LC50 is calculated from [(Ti−Tz)/Tz]×100=−50, which is the drug concentration resulting in a 50% reduction at the end of the drug treatment as compared to that at the beginning.
(§3) Herein, Hep3B refers to hepatocellular carcinoma cell line, SW480 refers to colon adenocarcinoma cell line, and NCI-H460 refers to human lung cancer cell line.

[2] = test system: Hep3B hepatocellular carcinoma cell line; experiment: MTS cell viability assay (NCI-60 methodology), GI50/LC50, Hep3B; settings: Homo sapiens, 48 h, Hep3B cells, 2 days incubation with compound
Procedure: as §1, §2, §3

[3] = test system: SW480 colon adenocarcinoma cell line; experiment: MTS cell viability assay (NCI-60 methodology), GI50/LC50, SW480; settings: Homo sapiens, 48 h, SW480 cells, 2 days incubation with compound
Procedure: as §1, §2, §3

[4] = test system: hepatocellular carcinoma cell line Hep3B; experiment: Growth inhibition of Hep3B cells, 48 hr treatment, Hoechst 33342 nucleus count (GE InCell 2200); settings: Homo sapiens
Summary of the method: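 Compound exposure lasted 48 hr at 37° C, 5% CO2. Surviving nuclei were counted after Hoechst 33342 staining, and survival was expressed as the treated/non-treated cell number ratio, including the ratio at 10 μM compound.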

[5] = Table 1, ratio of number of tumor cells treated with 10 μM compound to non-treated cells
[6] = Table 5, ratio of number of tumor cells treated with 10 μM compound to non-treated cells
[7] = Table 6, ratio of number of tumor cells treated with 10 μM compound to non-treated cells

Question: For `CCOc1ccc(-c2nnc(NC(=O)Cc3ccc4nc(N)sc4c3)s2)c(OCC)c1` [Compound 1-18, 2-(2-aminobenzo[d]thiazol-6-yl)-N-(5-(2,4-diethoxyphenyl)-1,3,4-thiadiazol-2-yl)acetamide], which GI50 [1] is on record?
Answer: 200 nM

Question: What about the LC50 (concentration giving 50% net cell loss versus time zero, NCI-60 definition) [1] of the same molecule?
Answer: 600 nM

Question: What about the GI50 [2] of the same molecule?
Answer: 160 nM

Question: And the LC50 [2]?
Answer: 480 nM

Question: And the GI50 [3]?
Answer: 190 nM

Question: What about the LC50 (NCI-60 lethal concentration, 50% net cell loss vs time zero) [3] of the same molecule?
Answer: 580 nM

Question: What about the viability at 10 µM [4, 5] of the same molecule?
Answer: 70%

Question: `CCC(C)(C)c1ccc(Oc2sc(NC(=O)c3ccc([N+](=O)[O-])s3)nc2-c2ccc(F)cc2)cc1` [Compound 5-62, N-(4-(4-fluorophenyl)-5-(4-(tert-pentyl)phenoxy)thiazol-2-yl)-5-nitrothiophene-2-carboxamide] was tested. Which GI50 [1] did it give?
Answer: 590 nM

Question: And the LC50 (concentration giving 50% net cell loss versus time zero, NCI-60 definition) [1]?
Answer: 1240 nM

Question: What about the GI50 [2] of the same molecule?
Answer: 450 nM

Question: And the LC50 [2]?
Answer: 1160 nM

Question: What about the GI50 [3] of the same molecule?
Answer: 760 nM

Question: And the LC50 (NCI-60 lethal concentration, 50% net cell loss vs time zero) [3]?
Answer: 2250 nM

Question: And the viability at 10 µM [4, 6]?
Answer: 45%

Question: Which GI50 [1] does the source give for `CCCCCCOc1ccc(-c2nc(NC(=O)c3ccc([N+](=O)[O-])s3)sc2Oc2ccccc2)cc1` [Compound 5-67, N-(4-(4-(hexyloxy)phenyl)-5-phenoxythiazol-2-yl)-5-nitrothiophene-2-carboxamide] here?
Answer: 790 nM

Question: And the LC50 (concentration giving 50% net cell loss versus time zero, NCI-60 definition) [1]?
Answer: 1350 nM

Question: What about the GI50 [2] of the same molecule?
Answer: 620 nM

Question: What about the LC50 [2] of the same molecule?
Answer: 690 nM

Question: And the GI50 [3]?
Answer: 1030 nM

Question: And the LC50 (NCI-60 lethal concentration, 50% net cell loss vs time zero) [3]?
Answer: 1910 nM

Question: And the viability at 10 µM [4, 6]?
Answer: 46%

Question: For `Nc1nc2ccc(CC(=O)Nc3nc(-c4ccc(Br)cc4)c(-c4ccc(Br)cc4)s3)cc2s1` [Compound 3-10, 2-(2-aminobenzo[d]thiazol-6-yl)-N-(4,5-bis(4-bromophenyl)thiazol-2-yl)acetamide], which GI50 [1] is on record?
Answer: 840 nM

Question: And the LC50 (concentration giving 50% net cell loss versus time zero, NCI-60 definition) [1]?
Answer: 6620 nM

Question: And the GI50 [2]?
Answer: 510 nM

Question: What about the LC50 [2] of the same molecule?
Answer: 1290 nM

Question: And the GI50 [3]?
Answer: 1210 nM

Question: What about the LC50 (NCI-60 lethal concentration, 50% net cell loss vs time zero) [3] of the same molecule?
Answer: 7080 nM

Question: And the viability at 10 µM ([4]; Table 3, ratio of number of tumor cells treated with 10 μM compound to non-treated cells)?
Answer: 52%

Question: What does the source list for `O=C(Nc1nc(-c2ccc(Br)cc2)c(Oc2cccc(C(F)(F)F)c2)s1)c1ccc([N+](=O)[O-])s1` [Compound 5-11, N-(4-(4-bromophenyl)-5-(3-(trifluoromethyl)phenoxy)thiazol-2-yl)-5-nitrothiophene-2-carboxamide]?
Answer: GI50 [1]: 630 nM; LC50 (concentration giving 50% net cell loss versus time zero, NCI-60 definition) [1]: 3980 nM; GI50 [2]: 6540 nM; GI50 [3]: 7040 nM; viability at 10 µM [4, 6]: 21%

Question: Which results are given for `CCCOc1ccc(-c2nc(NC(=O)c3ccc([N+](=O)[O-])s3)sc2Oc2cccc(C(F)(F)F)c2)cc1` [Compound 5-17, 5-nitro-N-(4-(4-propoxyphenyl)-5-(3-(trifluoromethyl)phenoxy)thiazol-2-yl)thiophene-2-carboxamide]?
Answer: GI50 [1]: 1160 nM; LC50 (concentration giving 50% net cell loss versus time zero, NCI-60 definition) [1]: 2290 nM; GI50 [2]: 300 nM; LC50 [2]: 1600 nM; GI50 [3]: 1260 nM; LC50 (NCI-60 lethal concentration, 50% net cell loss vs time zero) [3]: 2410 nM; viability at 10 µM [4, 6]: 37%

Question: Which results are given for `CCCOc1ccc(-c2nc(NC(=O)c3ccc([N+](=O)[O-])s3)sc2Oc2ccc(C(F)(F)F)cc2Cl)cc1` [Compound 5-38, N-(5-(2-chloro-4-(trifluoromethyl)phenoxy)-4-(4-propoxyphenyl)thiazol-2-yl)-5-nitrothiophene-2-carboxamide]?
Answer: GI50 [1]: 570 nM; LC50 (concentration giving 50% net cell loss versus time zero, NCI-60 definition) [1]: 1430 nM; GI50 [2]: 370 nM; LC50 [2]: 1710 nM; GI50 [3]: 770 nM; LC50 (NCI-60 lethal concentration, 50% net cell loss vs time zero) [3]: 3220 nM; viability at 10 µM [4, 6]: 41%

Question: How did the GI50 [1] turn out when `O=C(Nc1nc(-c2ccc(OC(F)(F)F)cc2)c(Oc2ccccc2F)s1)c1ccc([N+](=O)[O-])s1` [Compound 5-85, N-(5-(2-fluorophenoxy)-4-(4-(trifluoromethoxy)phenyl)thiazol-2-yl)-5-nitrothiophene-2-carboxamide] was run?
Answer: 750 nM

Question: What about the LC50 (concentration giving 50% net cell loss versus time zero, NCI-60 definition) [1] of the same molecule?
Answer: 1580 nM

Question: And the GI50 [2]?
Answer: 870 nM

Question: What about the LC50 [2] of the same molecule?
Answer: 2540 nM

Question: And the GI50 [3]?
Answer: 1660 nM

Question: And the LC50 (NCI-60 lethal concentration, 50% net cell loss vs time zero) [3]?
Answer: 5730 nM

Question: What about the viability at 10 µM [4, 6] of the same molecule?
Answer: 34%

Question: Which results are given for `CCOCOc1cc(OCC)ccc1-c1nnc(NC(=O)Cc2ccc3nc(N)sc3c2)s1` [Compound 1-26, 2-(2-aminobenzo[d]thiazol-6-yl)-N-(5-(4-ethoxy-2-(ethoxymethoxy)phenyl)-1,3,4-thiadiazol-2-yl)acetamide]?
Answer: GI50 [1]: 200 nM; LC50 (concentration giving 50% net cell loss versus time zero, NCI-60 definition) [1]: 590 nM; GI50 [2]: 160 nM; LC50 [2]: 490 nM; GI50 [3]: 210 nM; LC50 (NCI-60 lethal concentration, 50% net cell loss vs time zero) [3]: 630 nM; viability at 10 µM [4, 5]: 59%

Question: Which GI50 [1] does the source give for `CCOc1cnccc1-c1nnc(NC(=O)Cc2ccc3nc(N)sc3c2)s1` [Compound 1-25, 2-(2-aminobenzo[d]thiazol-6-yl)-N-(5-(3-ethoxypyridin-4-yl)-1,3,4-thiadiazol-2-yl)acetamide] here?
Answer: 320 nM

Question: What about the GI50 [2] of the same molecule?
Answer: 170 nM

Question: And the LC50 [2]?
Answer: 500 nM

Question: And the GI50 [3]?
Answer: 350 nM

Question: And the LC50 (NCI-60 lethal concentration, 50% net cell loss vs time zero) [3]?
Answer: 1040 nM

Question: And the viability at 10 µM [4, 5]?
Answer: 54%

Question: Which GI50 [1] does the source give for `CC(C)(C)c1ccc(-c2nc(NC(=O)c3ccc([N+](=O)[O-])s3)sc2-c2ccccc2)cc1` [Compound 6-21, N-(4-(4-(tert-butyl)phenyl)-5-phenylthiazol-2-yl)-5-nitrothiophene-2-carboxamide] here?
Answer: 810 nM

Question: What about the LC50 (concentration giving 50% net cell loss versus time zero, NCI-60 definition) [1] of the same molecule?
Answer: 1470 nM

Question: And the GI50 [2]?
Answer: 670 nM

Question: What about the LC50 [2] of the same molecule?
Answer: 1350 nM

Question: What about the GI50 [3] of the same molecule?
Answer: 490 nM

Question: And the LC50 (NCI-60 lethal concentration, 50% net cell loss vs time zero) [3]?
Answer: 1470 nM

Question: What about the viability at 10 µM [4, 7] of the same molecule?
Answer: 29%

Question: What does the source list for `CC(C)(C)c1ccc(-c2nc(NC(=O)c3ccc([N+](=O)[O-])s3)sc2-c2ccc(Br)cc2)cc1` [Compound 6-53, N-(5-(4-bromophenyl)-4-(4-(tert-butyl)phenyl)thiazol-2-yl)-5-nitrothiophene-2-carboxamide]?
Answer: GI50 [1]: 710 nM; LC50 (concentration giving 50% net cell loss versus time zero, NCI-60 definition) [1]: 1370 nM; GI50 [2]: 540 nM; LC50 [2]: 620 nM; GI50 [3]: 620 nM; LC50 (NCI-60 lethal concentration, 50% net cell loss vs time zero) [3]: 990 nM; viability at 10 µM [4, 7]: 24%

Question: For `O=C(Nc1nc(-c2ccc(F)cc2)c(Oc2ccccc2OC(F)(F)F)s1)c1ccc([N+](=O)[O-])s1` [Compound 5-32, N-(4-(4-fluorophenyl)-5-(2-(trifluoromethoxy)phenoxy)thiazol-2-yl)-5-nitrothiophene-2-carboxamide], which GI50 [1] is on record?
Answer: 690 nM

Question: And the LC50 (concentration giving 50% net cell loss versus time zero, NCI-60 definition) [1]?
Answer: 1730 nM

Question: And the GI50 [2]?
Answer: 460 nM

Question: What about the LC50 [2] of the same molecule?
Answer: 2170 nM

Question: And the GI50 [3]?
Answer: 400 nM

Question: What about the LC50 (NCI-60 lethal concentration, 50% net cell loss vs time zero) [3] of the same molecule?
Answer: 2260 nM

Question: What about the viability at 10 µM [4, 6] of the same molecule?
Answer: 48%

Question: Which results are given for `CC(C)(C)c1ccc(-c2nc(NC(=O)c3ccc([N+](=O)[O-])s3)sc2Oc2ccccc2)cc1` [Compound 5-14, N-(4-(4-(tert-butyl)phenyl)-5-phenoxythiazol-2-yl)-5-nitrothiophene-2-carboxamide]?
Answer: GI50 [1]: 1720 nM; GI50 [2]: 340 nM; LC50 [2]: 7350 nM; GI50 [3]: 1510 nM; viability at 10 µM [4, 6]: 50%

Question: Which results are given for `CCC(CC)Oc1ccccc1-c1nnc(NC(=O)Cc2ccc3nc(N)sc3c2)s1` [Compound 1-22, 2-(2-aminobenzo[d]thiazol-6-yl)-N-(5-(2-(pentan-3-yloxy)phenyl)-1,3,4-thiadiazol-2-yl)acetamide]?
Answer: GI50 [1]: 2670 nM; GI50 [2]: 90 nM; LC50 [2]: 8360 nM; GI50 [3]: 1230 nM; viability at 10 µM [4, 5]: 66%
